Data set [1] can be described thus: Propidium iodide assay. In kind it is cell-based. How it is done:
Efforts to address the specific target in breast cancer cellular models are disclosed. Thus, in the present disclosure, the EP-chemical probes were generated to study subcellular co-localization in order to recover its potential mechanism in breast cancer cell models. An efficient synthetic approach to EP and its analogues from ergosterol was developed. The resultant EP compounds were evaluated for cytotoxicity/apoptosis via CellTiterGlo assay, and propidium iodide assay.

The subject of data set [2] is T47D. Kind of data set: Cytotoxicity of EP probes via CTG assay. The data set is classed as cell-based. To be noted: 72 hr.
The subject of data set [3] is MDA-MB-231. The data set is described as follows: Cytotoxicity of EP probes via CTG assay. The data set is classed as cell-based, human. To be noted: 72 hr, read-out: MDA-MB231 EC50.
For data set [4], the system named is MDA-MB-231, SUM-149, T47D. Kind of data set: Cytotoxicity of EP analogues via CTG assay, comparison across cell lines. As to conditions: 72 hr. How it is done:
To better understand the structure-activity-relationship of EP, its core was modified at the C3 position of the steroid backbone. […] Both normal cell lines HMEC and BJ cells were also evaluated to determine therapeutic index.
(§1) Either 1×10^3-4.8×10^3 or 4×10^2-1.2×10^3 cells were seeded to each well of 96- or 384-well white polystyrene flat-bottomed plates (3610 or 8804BC, Corning) in 100 μL or 30 μL media per well, respectively. The concentrations used were experimentally determined to ensure logarithmic growth during the duration of the experiment and prevent adverse effects on cell growth by DMSO exposure. The plates were incubated at 37° C. in 5% CO2 for 24 h before treatment. Stock solutions of test compounds (10 mM in DMSO) in nine 3-fold serial dilutions were dispensed via pintool (Biomek). The final concentration of DMSO was 0.3% (v/v) in each well. The plates were incubated for 72 h at 37° C. in 5% CO2 and then quenched with CellTiter-Glo® reagent (50 μL/well in 96-well plate, 30 μL/well in 384-well plate) at RT. The positive controls included staurosporine (10 μM), gambogic acid (10 μM), and a toxic quinoline generated in-house. Plates were then incubated at RT for 20 min and centrifuged at 1000 rpm for 1 min. The cytotoxicity assay was performed by using the CellTiterGlo Luminescent Cell Viability Assay kit (G7570, Promega, Madison, WI) according to the manufacturer's instructions. Luminescence was recorded in an Envision plate reader (Perkin Elmer).

The subject of data set [5] is SUM-149. Kind of data set: Cytotoxicity of EP probes via CTG assay. The data set is classed as cell-based, human. As to conditions: 72 hr, read-out: SUM149 EC50.
Data set [6] deals with HMEC. Kind of data set: Cytotoxicity of EP probes via CTG assay, normal cells. The data set is classed as cell-based. To be noted: 72 hr.
In data set [7] the test system is MDA-MB-231 breast cancer cells. Kind of data set: De novo in-cell protein synthesis (click assay). The data set is classed as cell-based, human. To be noted: 2 h treatment; EP 20 μM. How it is done: First, 2.5×10^4 cells/well were seeded in 8-well μ-slides (Ibidi®, #80826) and incubated at 37° C. for 12 h. The cells were treated with vehicle, compounds Ganoderic acid A or EP, or cycloheximide (positive control) for 2 h to determine protein synthesis as nascent proteins generated using Biovision's EZClick™ Global Protein Synthesis Assay Kit, (#K715-100, Milpitas, CA). The assay includes a robust chemical method based on an alkyne containing o-propargyl-puromycin (OP-puro) probe, which stops translation by forming covalent conjugates with nascent polypeptide chains. Truncated polypeptides are rapidly turned over by the proteasome and can be detected based on the subsequent click reaction with a fluorescent azide. The reaction was conducted according to the manufacturer's protocol. Cells were imaged at 20× with a Nikon C2 scanning confocal microscope, and the whole image montage was quantified by using Gen5 Software and Lionheart™ FX Automated Microscope (BioTek, Winooski, VT).

In data set [8] the test system is BJ cells. Kind of data set: Cell viability assay in normal fibroblasts. As to conditions: at the concentrations tested. The procedure:
The compounds' activity was also evaluated in human and murine leukemia (KOPN8, BCR-ABL, UoCB-1, SUP-B15, NALM06) cell lines. As a control, normal human skin fibroblasts (BJ) cells and non-cancerous mammary epithelial cells (MCF10A) were used.
Different concentrations of GLE-extracted bioactive chemical components were tested for 72-h treatment periods.
as §1, with “The cytotoxicity assay was performed by using the CellTiterGlo Luminescent Cell Viability Assay kit (G7570, Promega, Madison, WI) according to the manufacturer's instructions.” left out
For the CTG assay, 3 or 4 replicate assays were conducted for each experimental condition, and a minimum of 3 independent experiments were conducted for cellular assays. The mean luminescence of each experimental treatment group was normalized as a percentage of the mean intensity of untreated controls. EC50 values (μM) were calculated by Pipeline Pilot Software (Accelrys, Enterprise Platform, CA, USA). EC50 values (μM) from the viability assay were calculated from dose response curve-fitting via non-linear regression by using GraphPad Prism (Version 7.0 San Diego, CA). […]

The subject of data set [9] is MDA-MB-231 cells. The data set is described as follows: ApoTox-Glo Triplex assay (caspase 3/7). The data set is classed as cell-based, human. As to conditions: MDA-MB-231, 24 h. The procedure:
(§2) Cells commonly fail to bypass the G1 phase of the cycle due to mutations or DNA damage, which can result in apoptosis. […] In addition, caspase 3/7 activity assays were performed as an alternate method of apoptosis detection.
(§3) Cells (9.5×10^4/well in 75 μL of fresh medium) were dispensed in 96-well black flat bottom (8807BC, Corning) plates. The cells were incubated for 12 h at 37° C. and then treated with compounds (25 μL) for 24 h. DMSO was used as a negative control, and staurosporine was used as the positive control. The experiment was stopped by adding the Viability/Cytotoxicity Reagent and briefly mixed by orbital shaking (300-500 rpm for ˜30 sec). Plates were incubated for 30 min at 37° C., and fluorescence was measured in an Envision plate reader at the following two wavelength sets: 400Ex/505Em (Viability) 485Ex/520Em (Cytotoxicity). Then, the Caspase-Glo® 3/7 Reagent was added; plates were mixed briefly by orbital shaking (300-500 rpm for ˜30 sec), followed by an additional 30 min incubation at RT. Then luminescence, which correlates with caspase 3/7 activation, was recorded with a plate reader to determine apoptosis induction.

The test system of data set [10] is SUM-149 cells. The data set is described as follows: ApoTox-Glo Triplex assay (caspase 3/7). The data set is classed as cell-based, human. As to conditions: SUM-149, 24 h. How it is done: as §2, §3
In data set [11] the test system is MCF-7 breast cancer cells. Kind of data set: Reactive oxygen species (ROS) measurement, CellROX. To be noted: not statistically significant for the GLE compounds. In kind it is cell-based, human. The procedure: Live-cell CellROX® assays for oxidative stress detection were conducted to evaluate whether GA-01, ergosterol, 5-6-dihydroergosterol and EP trigger intrinsic apoptosis pathways by inducing ROS. […] Menadione or t-Butyl hydrogen peroxide (TBHP) were positive controls (FIGS. 7 and S5) and co-treated with N-acetyl cysteine (NAC) to confirm that the signal was due to ROS formation induced by the compound. […] Furthermore, the possibility of the endoperoxide motif to react with NAC, was assessed EP was incubated with NAC in DMSO for 24 h at 37° C. […] Thus, the ability of EP to induce ROS could potentially be via a different mechanism from that of TBHP in MCF-7 cells.
The mRuby-Mito-7 plasmid was obtained from Addgene (#55874 from Michael Davidson). A stable clone of MCF-7 was generated by using Fugene 6 (Roche) to transfect cells (2×10^5) with plasmid (2.0 μg) under neomycin selection. A stable cell line was selected by using G418 (300 μg/mL) for 2 weeks, sorted by flow cytometry, and maintained under G418 thereafter. Transfected MCF-7 cells were plated at a density of 2×10^4 cells/well in black 96-well clear bottom tissue culture plates and incubated overnight at 37° C. […] Fluorescence intensity was measured in a Clariostar® plate reader (BMG LABTECH, Cary, NC) at 535 nm.

Data set [12] has as its system MDA-MB-231 cells. The data set is described as follows: Reactive oxygen species (ROS) measurement, CellROX. In kind it is cell-based, human. To be noted: NAC 500 μM.
In data set [13] the test system is SUM-149 cells. The data set is described as follows: Reactive oxygen species (ROS) measurement, CellROX. To be noted: NAC 500 μM. The data set is classed as cell-based, human.

Data on five molecules can be found in patent US12263177B2, “Biologically active ganoderma lucidum compounds and synthesis of anticancer derivatives; ergosterol peroxide probes for cellular localization” (priority 2019, dated 2025).

Molecules are shown by their SMILES.

`CC(C)C(C)C=CC(C)C1CCC2C1(C)CCC1C23C=CC2(CC(OC(=O)CCCCC4SCC5NC(=O)NC54)CCC12C)OO3` (stereo not shown) [3k]: the “ability to induce apoptosis” value in [1] was “validated via propidium iodide assay”. For the same molecule, the EC50 (in general, the midpoint of the concentration-response curve) in data set [2] was > 10 µM; in data set [3], 10 µM; in data set [5] it was 4 µM; in [6], > 14 µM. Moreover, in [4], the “cytotoxicity compared with parental compound 3 (in words)” value was “comparable cytotoxicity to the parental compound 3”.
For the molecule `Cc1cc(C)n2c1C=C1C=CC(CCC(=O)OC3CCC4(C)C5CCC6(C)C(C(C)C=CC(C)C(C)C)CCC6C56C=CC4(C3)OO6)=[N+]1[B-]2(F)F` (stereo not shown) [3m], the “ability to induce apoptosis” value in [1] is “validated via propidium iodide assay”. The EC50 in [2] was 18 µM; in data set [3] it was 18 µM; in data set [5], 2 µM; in [6], > 15 µM. In addition, the “cytotoxicity compared with parental compound 3 (in words)” value in [4] is on record as “comparable cytotoxicity to the parental compound 3”.
In the case of `C[C@H](CC(=O)C[C@@H](C)[C@H]1C[C@H](O)[C@@]2(C)C3=C(C(=O)C[C@]12C)[C@@]1(C)CCC(=O)C(C)(C)[C@@H]1C[C@@H]3O)C(=O)O` [GA-01, ganoderic acid A], in data set [7], the “de novo protein synthesis inhibition” value is reported as “do not inhibit de novo protein synthesis”. In addition, the “cytotoxic effects in normal BJ cells” value in data set [8] is listed as “did not induce cytotoxic effects”. In addition, the “caspase 3/7 activity” value in data set [9] and in data set [10] was “increase caspase 3/7 activity” in each case.
As for `CC(C)(C)OO` [TBHP, t-Butyl hydroperoxide], the “ROS formation reduction when co-treated with NAC” value in data set [11] is listed as ~50%.
Take `CC1=CC(=O)c2ccccc2C1=O` [menadione, Menadione, reference compound]: the “reduction in ROS formation in the presence of NAC” value in [12] and in data set [13] was “about 20%” in each case.
